14 compounds from US11053282B2, “Peptoid affinity ligands” (MIKE-ANN, LLC, priority 2016, dated 2021) can be followed below.

*1 amine or outer side, *2 acyl side, *3 side chain or, on linkers, in order; H or OH if unused. Where a SMILES comes first, the peptide text is derived from it. [ ]: non-standard residue; d: D form. ξ: configuration not given here. Gly(N(CH2)2(3-indolyl)) = O=C(O)CNCCc1c[nH]c2ccccc12; NGly(CH2(3-pyridyl)) = O=C(O)CNCc1cccnc1; ξW = NC(Cc1c[nH]c2ccccc12)C(=O)O; Gly(N(CH2)3NH2) = NCCCNCC(=O)O; Cit = NC(=O)NCCC[CH](N)C(=O)O; Cysteamide = C(CS[*:3])N[*:1]; ξCit = NC(=O)NCCCC(N)C(=O)O; ξH = NC(Cc1c[nH]cn1)C(=O)O; Nphe = O=C(O)CNCc1ccccc1; NPrGly = CCCNCC(=O)O; ξV = CC(C)C(N)C(=O)O

This assay concerns the target polyclonal human IgG. Kind of assay: Adsorption isotherm of peptoid affinity resins against polyclonal human IgG. Particulars: IgG in PBS, 30 minutes; for Kd: affinity constant from hyperbola fit of adsorption isotherm, peptoid conjugated to chromatographic resin, read-out: Kd × 10^−6. Format: binding. As for the experimental part: The affinity for the peptoid-resin combinations was determined by measuring the adsorption isotherm of each resin against polyclonal human IgG (Pakimna et al., J Applied Sci., 12(11): 1136-1141, 2012). Briefly, 0.050 mL of 50% resin slurry was pipetted into 6 individual wells of a 96-well filter plate (0.45 micron, PVDF, Harvard Apparatus). The resin was washed with 2×250 μL PBS using a vacuum manifold. To an individual well, 0.25 mL of a human polyclonal IgG solution at different concentrations (10, 5, 2.5, 1.25, 0.625, and 0.3125 mg/mL) was added. The resin/IgG suspension was agitated gently on a rocking table for 30 minutes. The fluid was then collected via vacuum, and the resin was washed with 0.25 mL of PBS. The filtrate and wash were then analyzed by the BCA assay to determine the residual IgG concentration relative to the starting concentration of the solution.
The equilibrium concentrations were then used to determine the capacity of the resin at each IgG concentration using the following formula: q=Volumesample×(Initial Concentration−Equilibrium Concentration)/Volumeresin
A plot of q versus equilibrium concentration was generated and the data fit with a hyperbola to determine the affinity constant (Kd) and the maximum capacity (qmax) according to the below formula, where C=the equilibrium concentration of antibody in solution: q=qmax×C/(kd+C) Typical adsorption isotherm is shown in FIG. 2. Tabulated Kd and qmax data is found in Table 2.

The mark [1] stands for this setting: maximum capacity (qmax) of resin from hyperbola fit of adsorption isotherm.

In the case of `NC(=O)NCCCC(NC(=O)CN(Cc1ccccc1)C(=O)CNCc1cccnc1)C(=O)NC(CCCNC(N)=O)C(=O)NCCS` (stereo not shown) [Ligand 12-55-6] (H-[NGly(CH2(3-pyridyl))][Nphe][Cit][Cit]-Cysteamide; configuration not given here), the Kd amounted to 33 µM. Besides, the “Qmax” value under setting [1] is on record as 97 mg/mL.

Consider `CCCN(CC(=O)NCCS)C(=O)CN(CCc1c[nH]c2ccccc12)C(=O)CNC(=O)C(CCCNC(N)=O)NC(=O)CN(CCc1c[nH]c2ccccc12)C(=O)CNCc1cccnc1` (stereo not shown) [Ligand 12-65-1] (H-[NGly(CH2(3-pyridyl))][Gly(N(CH2)2(3-indolyl))][ξCit]G[Gly(N(CH2)2(3-indolyl))][NPrGly]-Cysteamide), for which the Kd came to 7.9 µM. In addition, the “Qmax” value under setting [1] was 65 mg/mL.

Consider `CCCN(CC(=O)NCCS)C(=O)CN(CCc1c[nH]c2ccccc12)C(=O)CNC(=O)C(CCCNC(N)=O)NC(=O)CN(CCc1c[nH]c2ccccc12)C(=O)[C@@H](N)Cc1c[nH]cn1` (stereo partly shown) [Ligand 12-65-2] (H-H[Gly(N(CH2)2(3-indolyl))][ξCit]G[Gly(N(CH2)2(3-indolyl))][NPrGly]-Cysteamide), for which the Kd was determined as 15 µM. In addition, under setting [1], the “Qmax” value was 53 mg/mL.

`NC(=O)NCCCC(N)C(=O)N(CC(=O)N(CCc1c[nH]c2ccccc12)CC(=O)NCC(=O)N(CCc1c[nH]c2ccccc12)CC(=O)NCCS)Cc1cccnc1` (stereo not shown) [Ligand 12-65-5] (H-[ξCit][NGly(CH2(3-pyridyl))][Gly(N(CH2)2(3-indolyl))]G[Gly(N(CH2)2(3-indolyl))]-Cysteamide): the Kd turned out to be 3.6 µM. In addition, the “Qmax” value under setting [1] is 64 mg/mL.

`NC(=O)NCCCC(NC(=O)CN(Cc1ccccc1)C(=O)CNCc1cccnc1)C(=O)NC(CCCNC(N)=O)C(=O)N(CC(=O)NCCS)Cc1cccnc1` (stereo not shown) [Ligand 12-65-8] (H-[NGly(CH2(3-pyridyl))][Nphe][Cit][Cit][NGly(CH2(3-pyridyl))]-Cysteamide; configuration not given here): the Kd was 3.6 µM. In addition, the “Qmax (mg/mL)” value under setting [1] was found to be 57. mg/mL.

With `NC(=O)NCCCC(NC(=O)CN(CCc1c[nH]c2ccccc12)C(=O)CNCc1cccnc1)C(=O)N(CCc1c[nH]c2ccccc12)CC(=O)NCCS` (stereo not shown) [Ligand 16-81-4] (H-[NGly(CH2(3-pyridyl))][Gly(N(CH2)2(3-indolyl))][ξCit][Gly(N(CH2)2(3-indolyl))]-Cysteamide), the Kd is 2.9 µM. For the same compound, the “Qmax” value under setting [1] is 64 mg/mL.

As for `CCCN(CC(=O)NCCS)C(=O)C(Cc1c[nH]c2ccccc12)NC(=O)CNC(=O)CN(CCCN)C(=O)CN(CCc1c[nH]c2ccccc12)C(=O)CNCc1cccnc1` (stereo not shown) [Ligand 16-83-2] (H-[NGly(CH2(3-pyridyl))][Gly(N(CH2)2(3-indolyl))][Gly(N(CH2)3NH2)]G[ξW][NPrGly]-Cysteamide), the Kd is 5.3 µM. For the same compound, under setting [1], the “Qmax” value came to 49 mg/mL.

For the compound `CCCN(CC(=O)NCCS)C(=O)CN(CCc1c[nH]c2ccccc12)C(=O)CNC(=O)CN(CCCN)C(=O)C(Cc1c[nH]c2ccccc12)NC(=O)CNCc1cccnc1` (stereo not shown) [Ligand 16-83-3] (H-[NGly(CH2(3-pyridyl))][ξW][Gly(N(CH2)3NH2)]G[Gly(N(CH2)2(3-indolyl))][NPrGly]-Cysteamide), the Kd stood at 7.3 µM. Also, the “Qmax” value under setting [1] was found to be 51 mg/mL.

With `CCCN(CC(=O)NCCS)C(=O)CN(CCc1c[nH]c2ccccc12)C(=O)CNC(=O)CN(CCCN)C(=O)CN(CCc1c[nH]c2ccccc12)C(=O)C(N)Cc1c[nH]cn1` (stereo not shown) [Ligand 16-83-5] (H-[ξH][Gly(N(CH2)2(3-indolyl))][Gly(N(CH2)3NH2)]G[Gly(N(CH2)2(3-indolyl))][NPrGly]-Cysteamide), the Kd came to 6.5 µM. In addition, under setting [1], the “Qmax” value was found to be 62 mg/mL.

As for `CC(C)C(NC(=O)CN(CCc1c[nH]c2ccccc12)C(=O)CNC(=O)CN(CCCN)C(=O)CN(CCc1c[nH]c2ccccc12)C(=O)CNCc1cccnc1)C(=O)NCCS` (stereo not shown) [Ligand 16-83-6] (H-[NGly(CH2(3-pyridyl))][Gly(N(CH2)2(3-indolyl))][Gly(N(CH2)3NH2)]G[Gly(N(CH2)2(3-indolyl))][ξV]-Cysteamide), the Kd stood at 4.6 µM. Besides, under setting [1], the “Qmax” value is listed as 56 mg/mL.

Turning to `NC(=O)NCCCC(NC(=O)CNCCc1c[nH]c2ccccc12)C(=O)N(CCc1c[nH]c2ccccc12)CC(=O)N(CC(=O)NCCS)Cc1cccnc1` (stereo not shown) [Ligand 16-83-7] (H-[Gly(N(CH2)2(3-indolyl))][ξCit][Gly(N(CH2)2(3-indolyl))][NGly(CH2(3-pyridyl))]-Cysteamide), the Kd stood at 7.7 µM. The “Qmax” value under setting [1] is recorded as 53 mg/mL.

As for `NC(=O)NCCCC(N)C(=O)N(CCc1c[nH]c2ccccc12)CC(=O)N(CC(=O)N(CCc1c[nH]c2ccccc12)CC(=O)NCCS)Cc1cccnc1` (stereo not shown) [Ligand 16-83-9] (H-[ξCit][Gly(N(CH2)2(3-indolyl))][NGly(CH2(3-pyridyl))][Gly(N(CH2)2(3-indolyl))]-Cysteamide), the Kd turned out to be 4.9 µM. For the same compound, the “Qmax” value under setting [1] is 52 mg/mL.

Take `NC(=O)NCCCC(NC(=O)CN(CCc1c[nH]c2ccccc12)C(=O)CNCc1cccnc1)C(=O)NC(CCCNC(N)=O)C(=O)NCCS` (stereo not shown) [Ligand 16-84-2]: the Kd was 6.5 µM. Moreover, the “Qmax” value under setting [1] amounted to 48 mg/mL.

Regarding `NC(=O)NCCCC(N)C(=O)N(CC(=O)N(CCc1c[nH]c2ccccc12)CC(=O)N(CC(=O)NCCS)Cc1cccnc1)Cc1cccnc1` (stereo not shown) [Ligand 16-84-3] (H-[ξCit][NGly(CH2(3-pyridyl))][Gly(N(CH2)2(3-indolyl))][NGly(CH2(3-pyridyl))]-Cysteamide), the Kd came to 4.9 µM. Moreover, the “Qmax” value under setting [1] came out at 56 mg/mL.
